The data set relates to rodent lifetime carcinogenesis bioassay, tumor incidence TD50. Put plainly: chronic cancer bioassays in animals – CPDB, compiled studies (AID 1745844).

Where “and” joins values, the source holds several entries; their conditions need not be identical. Equal entries are not always repeated. Calls of active or inactive are those of the source. The rule behind the calls is not given here.

`CC(C)(C)c1cc(C(C)(C)C)c(O)c(C(C)(C)C)c1`: the carcinogen call was “negative (inactive)” (rat, strain Wistar, females, in feed, site: liver, lesion: one or several types, types not named, dosed 52 weeks, study length 52 weeks); “negative (inactive)” (rat, strain Wistar, females, in feed, site: liver, lesion: one or several types, types not named, dosed 78 weeks, study length 78 weeks); “negative (inactive)” (rat, strain Wistar, females, in feed, site: liver, lesion: one or several types, types not named, dosed 104 weeks, study length 104 weeks); “negative (inactive)” (rat, strain Wistar, males, in feed, site: liver, lesion: one or several types, types not named, dosed 52 weeks, study length 52 weeks); “negative (inactive)” (rat, strain Wistar, males, in feed, site: liver, lesion: one or several types, types not named, dosed 78 weeks, study length 78 weeks); “negative (inactive)” (rat, strain Wistar, males, in feed, site: liver, lesion: one or several types, types not named, dosed 104 weeks, study length 104 weeks).
Consider `O=[N+]([O-])c1ccc(-c2nc(N3CCOCC3)c3ccccc3n2)s1`, for which the TD50 (rat, strain Sprague-Dawley, females, in feed, site: any site (literature study), lesion: several types, types named in the paper, dosed 46 weeks, study length 66 weeks) was 5.03 mg/kg/day.
As for `O=C1CCc2ccccc2O1`, the TD50 (mouse, strain B6C3F1, females, by gavage, site: all sites, lesion: hemangioma + hemangiosarcoma, dosed 103 weeks, study length 104 weeks) was 4810 mg/kg/day; the TD50 (mouse, strain B6C3F1, females, by gavage, site: all sites, lesion: hemangiosarcoma, dosed 103 weeks, study length 104 weeks) is 6140 mg/kg/day; the TD50 (mouse, strain B6C3F1, females, by gavage, site: any site (literature study), lesion: several types, types named in the paper, dosed 103 weeks, study length 104 weeks) worked out at 541 mg/kg/day; the TD50 (mouse, strain B6C3F1, females, by gavage, site: liver, lesion: hepatocellular adenoma + hepatoblastoma + hepatocellular carcinoma, dosed 103 weeks, study length 104 weeks) was determined as 723 mg/kg/day; the TD50 (mouse, strain B6C3F1, females, by gavage, site: liver, lesion: hepatocellular adenoma + hepatocellular carcinoma, dosed 103 weeks, study length 104 weeks) is 723 mg/kg/day; the TD50 (mouse, strain B6C3F1, females, by gavage, site: liver, lesion: hepatocellular adenoma, dosed 103 weeks, study length 104 weeks) was 790 mg/kg/day. Also, the TD50 is 96100 mg/kg/day (mouse, strain B6C3F1, females, by gavage, site: lung, lesion: alveolar/bronchiolar adenoma + alveolar/bronchiolar carcinoma, dosed 103 weeks, study length 104 weeks); 3320 mg/kg/day (mouse, strain B6C3F1, males, by gavage, site: all sites, lesion: histiocytic sarcoma + malignant lymphoma, histiocytic type + malignant lymphoma, lymphocytic type + malignant lymphoma, dosed 103 weeks, study length 104 weeks); 3780 mg/kg/day (inactive) (mouse, strain B6C3F1, males, by gavage, site: all sites, lesion: malignant lymphoma, histiocytic type + malignant lymphoma, mixed type + malignant lymphoma, lymphocytic type + malignant lymph, dosed 103 weeks, study length 104 weeks); 1400 mg/kg/day (mouse, strain B6C3F1, males, by gavage, site: any site (literature study), lesion: several types, types named in the paper, dosed 103 weeks, study length 104 weeks); 2890 mg/kg/day (mouse, strain B6C3F1, males, by gavage, site: liver, lesion: hepatocellular adenoma + hepatoblastoma + hepatocellular carcinoma, dosed 103 weeks, study length 104 weeks); 3260 mg/kg/day (mouse, strain B6C3F1, males, by gavage, site: lung, lesion: alveolar/bronchiolar adenoma + alveolar/bronchiolar carcinoma, dosed 103 weeks, study length 104 weeks). Moreover, the TD50 (mouse, strain B6C3F1, males, by gavage, site: lung, lesion: alveolar/bronchiolar adenoma, dosed 103 weeks, study length 104 weeks) stood at 596 mg/kg/day; the TD50 (rat, strain Fischer 344, females, by gavage, site: adrenal medulla, lesion: pheochromocytoma benign, bilateral + pheochromocytoma, benign, dosed 103 weeks, study length 104 weeks) is 538 mg/kg/day (inactive); the TD50 (rat, strain Fischer 344, females, by gavage, site: any site (literature study), lesion: several types, types named in the paper, dosed 103 weeks, study length 104 weeks) was 3180 mg/kg/day; the TD50 (rat, strain Fischer 344, males, by gavage, site: any site (literature study), lesion: several types, types named in the paper, dosed 38 weeks, study length 104 weeks) was found to be 1370 mg/kg/day; the TD50 (rat, strain Fischer 344, males, by gavage, site: any site (literature study), lesion: several types, types named in the paper, dosed 64 weeks, study length 104 weeks) came out at 186 mg/kg/day; the TD50 (rat, strain Fischer 344, males, by gavage, site: any site (literature study), lesion: several types, types named in the paper, dosed 103 weeks, study length 104 weeks) came out at 143 mg/kg/day. In addition, the TD50 runs as follows: (rat, strain Fischer 344, males, by gavage, site: kidney, lesion: transitional-cell carcinoma, dosed 103 weeks, study length 104 weeks) 11800 mg/kg/day; (rat, strain Fischer 344, males, by gavage, site: kidney, lesion: tubule adenoma, dosed 38 weeks, study length 104 weeks) 310 mg/kg/day; (rat, strain Fischer 344, males, by gavage, site: kidney, lesion: tubule adenoma, dosed 64 weeks, study length 104 weeks) 408 mg/kg/day; (rat, strain Fischer 344, males, by gavage, site: kidney, lesion: tubule adenoma, dosed 103 weeks, study length 104 weeks) 3870 mg/kg/day and 2970 mg/kg/day; (rat, strain Fischer 344, males, by gavage, site: liver, lesion: hepatocellular adenoma + hepatoblastoma + hepatocellular carcinoma, dosed 38 weeks, study length 104 weeks) 819 mg/kg/day; (rat, strain Fischer 344, males, by gavage, site: liver, lesion: hepatocellular adenoma + hepatoblastoma + hepatocellular carcinoma, dosed 103 weeks, study length 104 weeks) 1380 mg/kg/day. The TD50 was 258 mg/kg/day (rat, strain Fischer 344, males, by gavage, site: skin, lesion: basal-cell adenoma + keratoacanthoma + squamous-cell papilloma, dosed 64 weeks, study length 104 weeks); 378 mg/kg/day (rat, strain Fischer 344, males, by gavage, site: skin, lesion: basal-cell adenoma, dosed 64 weeks, study length 104 weeks); 403 mg/kg/day (rat, strain Fischer 344, males, by gavage, site: skin, lesion: fibroma, dosed 64 weeks, study length 104 weeks); 51.7 mg/kg/day (rat, strain Fischer 344, males, by gavage, site: testis, lesion: interstitial-cell adenoma, dosed 64 weeks, study length 104 weeks); 70.6 mg/kg/day (rat, strain Fischer 344, males, by gavage, site: testis, lesion: interstitial-cell adenoma, dosed 103 weeks, study length 104 weeks).
Turning to `C=C1CC[C@H](O)C/C1=C/C=C1\CCC[C@]2(C)[C@@H]([C@H](C)/C=C/[C@H](C)C(C)C)CC[C@@H]12`, the TD50 (mouse, strain C3H (MTV+), females, in feed, site: mammary gland, lesion: adenocarcinoma, dosed 104 weeks, study length 104 weeks) came to 39.6 mg/kg/day.
Regarding `C#C[C@]1(O)CC[C@H]2[C@@H]3CCc4cc(OC)ccc4[C@H]3CC[C@@]21C`, the TD50 (mouse, strain CFLP, females, in feed, site: liver, lesion: hepatocellular tumor, dosed 78 weeks, study length 78 weeks) was 6.27 mg/kg/day (inactive) and the TD50 (mouse, strain CFLP, males, in feed, site: liver, lesion: hepatocellular tumor, dosed 78 weeks, study length 78 weeks) was 1.81 mg/kg/day (inactive).
`C#C[C@]1(OC(C)=O)CC[C@H]2[C@@H]3CCC4=CC(=O)CC[C@@H]4[C@H]3CC[C@@]21C` (tested in a mixture with another compound): the carcinogen call is, setting by setting: (monkey, strain Rhesus [Macaca mulatta], females, in feed, site: pancreatic duct, lesion: adenoma, dosed 391 weeks, study length 521 weeks) “negative (inactive)”; (mouse, strain C57L/He x 129/Rr x C3HeB/De x SWR/Ly, females, by gavage, site: any site (literature study), lesion: several types, types named in the paper, dosed 69 weeks, study length 69 weeks) “negative (inactive)”; (mouse, strain C57L/He x 129/Rr x C3HeB/De x SWR/Ly, females, by gavage, site: any site (literature study), lesion: several types, types named in the paper, dosed 69 weeks, study length 82 weeks) “negative (inactive)”; (mouse, strain C57L/He x 129/Rr x C3HeB/De x SWR/Ly, females, by gavage, site: lung, lesion: one or several types, types not named, dosed 69 weeks, study length 69 weeks) “negative (inactive)”. Further, the TD50 was 10.1 mg/kg/day (inactive) (monkey, strain Rhesus [Macaca mulatta], females, in feed, site: skin, lesion: papilloma, dosed 391 weeks, study length 521 weeks); 6.42 mg/kg/day (inactive) (monkey, strain Rhesus [Macaca mulatta], females, in feed, site: uterus, lesion: leiomyoma, dosed 391 weeks, study length 521 weeks); 1.34 mg/kg/day (mouse, strain C57L, females, by gavage, site: pituitary gland, lesion: one or several types, types not named, dosed 89 weeks, study length 89 weeks); 14.2 mg/kg/day (rat, strain Sprague-Dawley albino, both sexes, in feed, site: any site (literature study), lesion: several types, types named in the paper, dosed 104 weeks, study length 104 weeks); 7.59 mg/kg/day (rat, strain Sprague-Dawley albino, both sexes, in feed, site: liver, lesion: hepatocellular adenoma, dosed 104 weeks, study length 104 weeks); 1.94 mg/kg/day (rat, strain Sprague-Dawley albino, both sexes, in feed, site: liver, lesion: hyperplastic nodule, dosed 104 weeks, study length 104 weeks). Moreover, the TD50 (rat, strain Sprague-Dawley albino, both sexes, in feed, site: mammary gland, lesion: adenocarcinoma, dosed 104 weeks, study length 104 weeks) was 76.8 mg/kg/day; the TD50 (rat, strain Sprague-Dawley albino, both sexes, in feed, site: mammary gland, lesion: adenoma, dosed 104 weeks, study length 104 weeks) was 14.8 mg/kg/day; the TD50 (rat, strain Sprague-Dawley albino, both sexes, in feed, site: mammary gland, lesion: fibroepithelial tumor, dosed 104 weeks, study length 104 weeks) was 21 mg/kg/day; the TD50 (rat, strain Sprague-Dawley albino, both sexes, in feed, site: mammary gland, lesion: several types, types named in the paper, dosed 104 weeks, study length 104 weeks) was 6.66 mg/kg/day; the TD50 (rat, strain Sprague-Dawley albino, both sexes, in feed, site: pituitary gland, lesion: chromophobe adenoma, dosed 104 weeks, study length 104 weeks) was 5.31 mg/kg/day; the TD50 (rat, strain Sprague-Dawley albino, both sexes, in feed, site: uterus, lesion: adenomatous endometrial polyp, dosed 104 weeks, study length 104 weeks) is 27.4 mg/kg/day.

In general, TD50 refers to the 50% point of the dose-response relation for the toxic effect studied.

The values are drawn from PubChem BioAssay AID1745844 (Carcinogenic Potency Database (CPDB), 2022).
